Data taken from patent publication US9474759B2 (priority 2011, dated 2016).

How the values were obtained:
[1] = biological target: HRV 3Cpro (recombinant, purchased from EMD chemicals) (Human rhinovirus 14, UniProt P03303); experiment: biochemical
[2] = biological target: MD145 3CLpro (codon-optimized, full-length, N-terminal 6 His, recombinant) (Lordsdale virus, UniProt P54634); experiment: biochemical; set-up: species or system norovirus strain MD145
[3] = biological target: NV 3CLpro (codon-optimized, full-length, N-terminal 6 His, recombinant) (Norovirus, UniProt Q83883); experiment: biochemical; set-up: species or system norovirus strain Norwalk
NV 3CLpro (codon-optimized, full-length, N-terminal 6 His, recombinant), sequence (Q83883 1101-1281): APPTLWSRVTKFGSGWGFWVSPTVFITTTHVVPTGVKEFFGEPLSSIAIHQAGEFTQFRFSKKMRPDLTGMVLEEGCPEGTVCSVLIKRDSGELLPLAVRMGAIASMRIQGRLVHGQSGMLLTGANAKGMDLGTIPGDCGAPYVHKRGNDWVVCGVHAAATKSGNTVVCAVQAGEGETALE

[4] = biological target: PV 3Cpro (codon-optimized, N-terminal 6 His, recombinant) (Poliovirus type 1, UniProt P03300); experiment: biochemical; set-up: species or system poliovirus (poliomyelitis virus)
PV 3Cpro (codon-optimized, N-terminal 6 His, recombinant), sequence (P03300 1566-1748 limits assumed): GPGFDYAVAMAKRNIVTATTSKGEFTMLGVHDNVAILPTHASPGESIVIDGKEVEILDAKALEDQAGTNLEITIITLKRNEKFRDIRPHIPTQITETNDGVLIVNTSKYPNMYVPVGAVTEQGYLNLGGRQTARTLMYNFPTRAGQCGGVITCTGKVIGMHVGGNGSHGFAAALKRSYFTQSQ

TGEV 3CL protease = TGEV 3CL protease (Porcine transmissible gastroenteritis coronavirus, UniProt P0C6Y5); experiment: FRET-based protease assay, TGEV 3CL protease (Example 5); format: biochemical, TGEV Miller strain; details: compound at 50 μM final concentration
TGEV 3CL protease, sequence (P0C6Y5 2879-3180): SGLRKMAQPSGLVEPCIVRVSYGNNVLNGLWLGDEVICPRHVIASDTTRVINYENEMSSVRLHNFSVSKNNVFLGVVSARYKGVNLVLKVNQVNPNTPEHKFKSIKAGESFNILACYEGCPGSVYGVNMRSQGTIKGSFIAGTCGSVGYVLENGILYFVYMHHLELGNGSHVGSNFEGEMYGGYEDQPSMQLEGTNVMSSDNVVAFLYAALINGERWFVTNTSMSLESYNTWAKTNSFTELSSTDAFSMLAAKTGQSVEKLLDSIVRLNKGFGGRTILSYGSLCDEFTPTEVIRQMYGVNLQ
Source text: The 3CL proteases are highly conserved among all coronaviruses, and feline coronavirus 3CL protease is closely related TGEV 3CL protease. Therefore we cloned and expressed the TGEV 3CL protease for the FRET assay. The cDNA encoding the full length of 3CL protease of TGEV Miller strain was amplified with RT-PCR as previously described. The primers contained the nucleotide sequence of the 3CL protease for cloning as well as the nucleotides for 6 Histidine in the forward primer. The amplified product was subcloned to pET-28a(+) vector (GenScript, Piscataway, N.J.). The expression and purification of the 3CL protease was performed with a standard method described previously by our lab (Chang et al., 2012b; Takahashi et al., 2012; Tiew et al., 2011).
Our protease inhibitor compounds and commercial cathepsin inhibitors CA074-Me and E64d were prepared in DMSO as stock solutions (10 mM), and further diluted in assay buffer consisting of 20 mM HEPES, 0.4 mM EDTA, 30% glycerol, 120 mM NaCl, and 4 mM DTT at pH 6. […] TGEV 3CL protease at a final concentration of 0.1˜0.2 μM and the substrate (Dabcyl-[…]-Edans; SEQ ID NO:2) at 10 μM were used for the studies. The substrate was purchased from Bachem Americas, Inc (Torrance, Calif.). Compounds at various concentrations (0˜50 μM) were pre-incubated with TGEV 3CL protease in 25 μl for 30 min at 37° C., and the same volume of substrate was added to a 96-well black plate. The mixtures were then incubated at 37° C. for 60 min, and fluorescence readings were obtained on a microplate reader at 360 nm excitation and 480 nm emission wavelengths. The relative fluorescence units (RFU) were calculated by subtracting background (substrate control well without protease) from the fluorescence readings. The dose-dependent FRET inhibition curves were fitted with variable slope (four parameters) using GraphPad Prism software (La Jolla, Calif.) in order to determine the compound concentration that gives a half-maximum response (IC50).

HAV = experiment: Cell culture system, HAV replication in FRhK-4 cells (Example 3); format: cell-based, hepatitis A virus
MNV-1 = MNV-1 passaged in the presence of the drug
human norovirus (HuNoV) = experiment: Gnotobiotic pig model of human norovirus infection, first trial; format: in vivo, gnotobiotic (Gn) pigs
Source text: We investigated if fecal norovirus shedding in human norovirus-inoculated gnotobiotic (Gn) pigs is altered the by treatment with GC376. […] On day 2 after antiviral treatment, they were inoculated orally with 1.0×10^10 genome equivalent (GE) of Human norovirus (GII.12 HS206). Rectal swabs were collected daily from each animal throughout the experiment, and fecal virus shedding and clinical signs were monitored daily until virus was not detectable by real-time qRT-PCR. The Table below summarizes the results.

[5] = test system: 3CLpro of NV, MD145, MNV-1; format: biochemical, norovirus; details: optimized FRET-based protease assay
[6] = test system: human norovirus (GII.12 HS206); experiment: Gnotobiotic pig model of human norovirus infection, repeat at 100 mg/kg/day; format: in vivo; details: Gn pigs
Source text: After antiviral treatment or HuNoV inoculation, clinical signs and fecal virus shedding were monitored daily through day 14.

[7] = PK and oral bioavailability studies in rats; details: 20 mg/Kg (body weight), IV or PO
[8] = Gn pigs, oral 25 mg/kg twice a day 10 days then approx. 12.5 mg/kg twice a day 5 days
[9] = same regimen, detection limit 4.7 log10 GE/ml
[10] = oral 100 mg/kg once a day for 5 days

HRV 3Cpro (recombinant, purchased from EMD chemicals), sequence (P03303 1538-1719): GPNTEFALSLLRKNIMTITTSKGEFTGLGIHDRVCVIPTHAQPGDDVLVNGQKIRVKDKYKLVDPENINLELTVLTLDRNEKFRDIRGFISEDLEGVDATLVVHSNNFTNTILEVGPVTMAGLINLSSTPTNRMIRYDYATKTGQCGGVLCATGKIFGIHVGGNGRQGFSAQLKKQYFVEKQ
MD145 3CLpro (codon-optimized, full-length, N-terminal 6 His, recombinant), sequence (P54634 1009-1189): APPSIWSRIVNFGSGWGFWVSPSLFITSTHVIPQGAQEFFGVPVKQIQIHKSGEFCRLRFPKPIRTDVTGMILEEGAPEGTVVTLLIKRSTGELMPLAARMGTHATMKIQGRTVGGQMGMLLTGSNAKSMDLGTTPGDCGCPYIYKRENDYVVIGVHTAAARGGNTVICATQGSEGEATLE

For `CCOC(=O)/C=C/[C@H](C[C@@H]1CCNC1=O)NC(=O)[C@@H](CC(=O)[C@@H](NC(=O)c1cc(C)on1)C(C)C)Cc1ccc(F)cc1` [Rupintrivir, reference compound], the IC50 [1] was 340 ± 50 nM, the IC50 [2] was 700 ± 190 nM and the IC50 [3] was 830 ± 190 nM. It also gave an IC50 [4] of 1830 ± 380 nM.
With `CC(C)C[C@H](NC(=O)OCc1ccccc1)C(=O)N[C@@H](C[C@@H]1CCNC1=O)C(O)S(=O)(=O)[O-].[Na+]` (stereo partly drawn) [GC376] the “inhibition of the activity of TGEV 3CL protease (in words)” value (TGEV 3CL protease) was “remarkably inhibited”, the “effectiveness against the replication of HAV in cells (in words)” value (HAV) was “no or weak effectiveness” and the “increase of IC50 at passage number 15” value (MNV-1) was “up to 10 fold”. For the same compound, the “Mean duration of virus shedding, Tx (+) at PIDs 1-13” value (human norovirus (HuNoV); [8]) was 7.5, the “Mean onset of virus shedding (PID)” value (human norovirus (HuNoV); [8]) was 2.3 PID and the “effect of oral treatment on virus shedding compared to untreated animals (in words)” value (human norovirus (HuNoV); HuNoV-inoculated Gn pigs) was “significantly reduced the duration of virus shedding”. The “Overall duration of virus shedding at PID1-27” value (human norovirus (HuNoV); same regimen) was 7.5, the “Mean duration of virus shedding, Tx (−) at PIDs 14-27” value (human norovirus (HuNoV); same regimen, after treatment discontinued) was 0 and the “Mean log10 viral titer/rectal swab (GE/ml), Overall viral titer shed at PIDs 1-27” value (human norovirus (HuNoV); [9]) was 4.86 log10 GE/ml. For the same compound, the “Mean log10 viral titer/rectal swab (GE/ml), Tx (+) at PIDs 1-13” value (human norovirus (HuNoV); [9]) was 4.98 log10 GE/ml, the “Mean log10 viral titer/rectal swab (GE/ml), Tx (−) at PIDs 14-27” value (human norovirus (HuNoV); [9]) was <4.70 log10 GE/ml and the “effect on the activity of 3CLpro of NV, MD145, MNV-1 (in words)” value [5] was “highly effective”. The “Mean duration of virus shedding (SEM), Tx (+) at PIDs 1-5” value [6, 10] was 3.3 (0.3), the “Mean duration of virus shedding (SEM), Tx (−) at PIDs 6-14” value [6, 10] was 4.0 (2.0) and the “Mean log10 viral titer/rectal swab (GE/ml) (SEM), Overall viral titer shed at PIDs 1-14” value [6, 10] was 5.17 (0.08)^B log10 GE/ml. For the same compound, the “Mean log10 viral titer/rectal swab (GE/ml) (SEM), Tx (+) at PIDs 1-5” value [6, 10] was 5.28 (0.13)^b,A log10 GE/ml, the “Mean log10 viral titer/rectal swab (GE/ml) (SEM), Tx (−) at PIDs 6-14” value [6, 10] was 5.11 (0.10)^B log10 GE/ml and the “fecal viral RNA titers after treatment was discontinued vs 30% DMSO vehicle pigs (in words)” value [6, 10] was “significantly lower fecal viral RNA titers”. The “Mean onset of virus shedding (PID) (SEM)” value ([6]; oral 100 mg/kg once a day for 5 days from day 1 after inoculation) was 2.7 (0.3) PID and the “oral bioavailability, % F” value [7] was 4 % F.
